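Test compounds were applied to cells in 96-well plates for 48 hours at 5 doses. The concentration for 50% growth inhibition is given as GI50.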 Activity calls are given as the source filed them. No stated cut-off is given here; in the data, active = GI50 up to about 1.1 µM and inactive = higher.
Assays:
Assay in all cases: DTP human tumour cell line panel, 48 h
EKVX = system: EKVX
LOX IMVI = system: LOX IMVI
SK-OV-3 = system: SK-OV-3
SF-295 = system: SF-295
COLO 205 = system: COLO 205
HCT-15 = system: HCT-15
SK-MEL-5 = system: SK-MEL-5
OVCAR-3 = system: OVCAR-3
MOLT-4 = system: MOLT-4
UO-31 = system: UO-31
NCI-H460 = system: NCI-H460
SF-268 = system: SF-268
SNB-75 = system: SNB-75
NCI-H226 = system: NCI-H226
IGROV-1 = system: IGROV-1
OVCAR-5 = system: OVCAR-5
OVCAR-8 = system: OVCAR-8
SW-620 = system: SW-620
M14 = system: M14
ACHN = system: ACHN

| Structure (SMILES) | GI50 (EKVX) | GI50 (LOX IMVI) | GI50 (SK-OV-3) | GI50 (SF-295) | GI50 (COLO 205) | GI50 (HCT-15) [µM] | GI50 (SK-MEL-5) | GI50 (OVCAR-3) | GI50 (MOLT-4) | GI50 (UO-31) | GI50 (NCI-H460) | GI50 (SF-268) | GI50 (SNB-75) | GI50 (NCI-H226) | GI50 (IGROV-1) | GI50 (OVCAR-5) | GI50 (OVCAR-8) | GI50 (SW-620) | GI50 (M14) | GI50 (ACHN) |
| --- | --- | --- | --- | --- | --- | --- | --- | --- | --- | --- | --- | --- | --- | --- | --- | --- | --- | --- | --- | --- |
| CN(C)C(=O)Oc1c(Br)cc(Br)cc1C(=O)OCc1ccccc1 | 35.6 µM (inactive) | 22.8 µM (inactive) | 44.9 µM (inactive) | 20.9 µM (inactive) | 18.3 µM (inactive) | 26.2 | 13.1 µM (inactive) | 19.1 µM (inactive) | 17.5 µM (inactive) | 20.3 µM (inactive) | 21.8 µM (inactive) | 35.6 µM (inactive) | 32 µM (inactive) | 28.7 µM (inactive) | 28.6 µM (inactive) | 28.3 µM (inactive) | 32.4 µM (inactive) | 41.1 µM (inactive) |  |  |
| COc1ccc(/N=C\c2ccc(N(CCC#N)S(=O)(=O)c3ccccc3)cc2C)cc1 | > 100 µM (inactive) |  | > 100 µM (inactive) | 63.2 µM (inactive) | 27.2 µM (inactive) | 8.53 | 51.1 µM (inactive) | 53.7 µM (inactive) | 27.4 µM (inactive) | 23.3 µM (inactive) | 34.8 µM (inactive) | 3.58 µM (inactive) | > 100 µM (inactive) | > 100 µM (inactive) | 64.1 µM (inactive) | > 100 µM (inactive) | > 100 µM (inactive) | 59.8 µM (inactive) | 14.6 µM (inactive) | 15.6 µM (inactive) |
| O=C1CCCC/C1=C1/SC(=N/c2ccccc2)/C(=N\c2ccccc2)N1c1ccccc1 |  |  | > 100 µM (inactive) | 86.3 µM (inactive) | > 100 µM (inactive) | > 100 | > 10 µM (inactive) | 40.4 µM (inactive) | 34.2 µM (inactive) | 91.4 µM (inactive) | > 100 µM (inactive) |  | 69.5 µM (inactive) | 23.4 µM (inactive) | > 100 µM (inactive) | > 100 µM (inactive) | > 100 µM (inactive) |  | > 100 µM (inactive) |  |
| COc1ccc2c(O)c3[n+](cc2c1OC)CCc1cc2c(cc1-3)OCO2 | > 100 µM (inactive) | 69 µM (inactive) | > 100 µM (inactive) | 42.9 µM (inactive) | > 100 µM (inactive) | 84.3 | 99.1 µM (inactive) | > 100 µM (inactive) | > 100 µM (inactive) |  | 79.4 µM (inactive) | > 100 µM (inactive) | > 100 µM (inactive) | > 100 µM (inactive) | 91.8 µM (inactive) | > 100 µM (inactive) | > 100 µM (inactive) | 45.5 µM (inactive) | > 100 µM (inactive) | > 100 µM (inactive) |
| O=C(NNC(=S)Nc1ccccc1)c1nsc2ccccc12 | 25.2 µM (inactive) | 23.7 µM (inactive) |  |  | 39.7 µM (inactive) | 10.7 | 24.6 µM (inactive) | 10.3 µM (inactive) | 20.7 µM (inactive) | 25.5 µM (inactive) | 21.5 µM (inactive) | 30.1 µM (inactive) | 25.1 µM (inactive) |  | 31 µM (inactive) | 57 µM (inactive) | 28.6 µM (inactive) | 40.6 µM (inactive) | 14.3 µM (inactive) | 39.7 µM (inactive) |
| CS(C)(=O)=Nn1c(=O)n2n(c1=O)C1c3ccccc3C2c2ccccc21 | > 100 µM (inactive) | > 100 µM (inactive) | > 100 µM (inactive) | > 100 µM (inactive) | > 100 µM (inactive) | > 100 | 43.7 µM (inactive) | > 100 µM (inactive) | > 100 µM (inactive) | > 100 µM (inactive) | > 100 µM (inactive) |  |  |  | > 100 µM (inactive) | > 100 µM (inactive) | > 100 µM (inactive) | > 100 µM (inactive) | > 100 µM (inactive) | > 100 µM (inactive) |
| CCNC(=S)NNC(=O)c1nsc2ccccc12 | 18.7 µM (inactive) | 64.9 µM (inactive) |  |  | > 100 µM (inactive) | 38.2 | 64.6 µM (inactive) | 49.1 µM (inactive) | 50.9 µM (inactive) | 52.8 µM (inactive) | 50.1 µM (inactive) | 81.5 µM (inactive) | 34.5 µM (inactive) |  | > 100 µM (inactive) | > 100 µM (inactive) | > 100 µM (inactive) | > 100 µM (inactive) | > 100 µM (inactive) | > 100 µM (inactive) |
| O=C(Nc1ccc([N+](=O)[O-])cc1)C(=O)C(C(=O)c1ccccc1F)C1OC(=O)c2ccccc21 (configuration not stated) | 40.4 µM (inactive) | 17.7 µM (inactive) | 41.2 µM (inactive) | 40.3 µM (inactive) | 25.9 µM (inactive) | 29.9 | 48.5 µM (inactive) |  | 26 µM (inactive) | 38.1 µM (inactive) | 34.9 µM (inactive) | 35 µM (inactive) | 30.2 µM (inactive) | 16.6 µM (inactive) | 64.9 µM (inactive) | 58.3 µM (inactive) | 35.9 µM (inactive) | 49 µM (inactive) | 69.7 µM (inactive) | 58.5 µM (inactive) |
| COc1cc([C@@H]2c3cc4c(cc3[C@H](O)[C@H]3COC(=O)[C@H]23)OCO4)cc(OC)c1OC [PODOFILOX] |  | < 0.005 µM (active) | < 0.005 µM (active) | < 0.005 µM (active) | < 0.005 µM (active) |  |  |  | < 0.005 µM (active) |  |  | < 0.005 µM (active) |  | < 0.005 µM (active) |  | 0.0375 µM (active) | < 0.005 µM (active) | < 0.005 µM (active) |  | < 0.005 µM (active) |
| CCN(CC)/[N+]([O-])=N/O | > 100 µM (inactive) | > 100 µM (inactive) | > 100 µM (inactive) | > 100 µM (inactive) |  | > 100 | > 100 µM (inactive) | > 100 µM (inactive) | > 100 µM (inactive) | > 100 µM (inactive) | > 100 µM (inactive) | > 100 µM (inactive) |  | > 100 µM (inactive) | > 100 µM (inactive) | > 100 µM (inactive) | > 100 µM (inactive) | > 100 µM (inactive) | > 100 µM (inactive) | > 100 µM (inactive) |
| COC(=O)CN(C)P(=O)(N1CC1)N1CC1 | > 100 µM (inactive) | 76 µM (inactive) | > 100 µM (inactive) | 90.2 µM (inactive) | > 100 µM (inactive) | > 100 | > 100 µM (inactive) |  | 33 µM (inactive) | > 100 µM (inactive) |  | 89.7 µM (inactive) | > 100 µM (inactive) |  | > 100 µM (inactive) | > 100 µM (inactive) | > 100 µM (inactive) | > 100 µM (inactive) | > 100 µM (inactive) | 71.4 µM (inactive) |
| Cc1ccc(S(=O)(=O)NCCSS(=O)(=O)c2ccc(C)cc2)cc1 |  | 33.4 µM (inactive) | > 100 µM (inactive) | 35.6 µM (inactive) | 56 µM (inactive) | 18.7 | 20.7 µM (inactive) |  | 26.8 µM (inactive) | 28 µM (inactive) | 35.4 µM (inactive) | 22.1 µM (inactive) | 30.4 µM (inactive) | 24.3 µM (inactive) |  |  | 37.9 µM (inactive) | 19.5 µM (inactive) |  | 32.8 µM (inactive) |

Source: ChEMBL document CHEMBL1201862, “PubChem BioAssay data set” (2004)
